Where two headings read alike, the source gives them in different places.
Key:
MsepCSP8 = MsepCSP8 (Mythimna separata, UniProt A0A1V1WC03); test: Fluorescence competitive binding assay with 1-NPN as fluorescent probe; conditions: for IC50: displacement of 1-NPN; for Ki: calculated from IC50; for binding affinity to MsepCSP8 in words: discussion of Table 1, pH not stated; for Kd: dissociation constant, saturation and Scatchard plot
Procedure: The expressed protein was obtained in soluble form in the supernatant, and purification was accomplished using a Ni affinity chromatography column (GE Healthcare, Uppsala, Sweden). Bound protein was eluted by digestion with recombinant bovine enterokinase at 26°C for 15 h to remove the His-tag. Expression and purification were verified by 15% sodium dodecyl sulfate-polyacrylamide gel electrophoresis (SDS-PAGE), and protein concentration was measured as described by [Cao et al. (2017)]. Dialysis of purified protein was carried out in 30 mM Tris-HCl buffer [Tris(hydroxymethyl)aminomethane] at pH 7.4 and pH 5.0 before fluorescence binding assays, and protein was stored at -80°C until use.
Fluorescence competitive binding assays were performed to determine the binding affinity of MsepCSP8 for 56 ligands using N-phenyl-1-naphthylamine (1-NPN) as a fluorescent probe. Stock solutions of ligands were prepared in spectrophotometric-grade methanol. […] Mixtures of 1-NPN and protein were excited at 337 nm wavelength, and emission spectra were recorded from 360 to 600 nm using a fluorescence spectrophotometer (RF-5301PC Shimadzu, Kyoto, Japan). Binding of selected ligands with MsepCSP8 (1:1 protein:ligand stoichiometry) was evaluated using 1-NPN as a fluorescent probe, with the final concentration of the product ranging from 0 to 20 μM. […] Three independent measurements were made for all experiments. The binding affinity (Ki) of MsepCSP8 for all tested ligands was calculated based on IC50 values as follows:
Ki=IC50/(1 + [1−NPN]/K1–NPN)
where [1-NPN] is the free concentration of 1-NPN, and K1-NPN is the dissociation constant of the complex of MsepCSP8 and 1-NPN.

Mythimna separata = test: Y-tube olfactometer bioassay (before RNAi); format: in vivo
Excerpt: Mythimna separata behavioral responses were examined by olfactometer bioassays ([Cao et al., 2015]) performed in a glass Y-tube (base = 4.0 cm diameter by 25 cm length, arms = 3.0 cm diameter by 26 cm length) using 10 different volatile compounds (Sigma-Aldrich).
Air entering the tube was passed through activated charcoal for filtration and humidified using deionised water. Filtered air was split between two chambers; one chamber containing liquid paraffin (used as control) and the other containing the test volatile. Each chamber was connected to one arm of the Y-tube. Airflow was kept constant at 6.0 l min^-1 throughout the experiment using an inline flow meter (Gilmont Instr., Barnant Co., Barrington, IL, United States). Orange light was used for this experiment. The whole experiment was conducted in a dark room, and the relative humidity and temperature were maintained at 70 ± 5% and 25 ± 1°C, respectively. A 10 μl of volatile compound was applied to 10 mm × 10 mm filter papers (Whatman No. 1) that was placed in the chamber connected to one arm of the Y-tube. A separate Y-tube was used for male and female moths.
To perform bioassays, a 3-day-old moth, either male or female, was released in the base of the Y-tube. Each insect was given 10 min to respond to the treatment, and the number of moths showing attraction, repulsion or no response was counted. Approximately 30 min before onset of the trial, male and female adults were placed into separate glass tubes (50 ml) and covered with a cotton plug to avoid exposure to tested volatiles. In total, 60 adults (30 male and 30 female) were tested per volatile compound, and χ^2 tests were applied to evaluate the number of M. separata individuals attracted to or repelled by volatiles.

MsepCSP8, sequence (A0A1V1WC03 entry or part of it): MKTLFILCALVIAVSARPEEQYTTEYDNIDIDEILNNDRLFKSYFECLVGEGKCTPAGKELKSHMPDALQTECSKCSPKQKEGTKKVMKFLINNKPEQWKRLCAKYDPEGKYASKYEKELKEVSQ

| Compound | IC50 (MsepCSP8; IC50, pH 5.0) | IC50 (MsepCSP8; IC50, pH 7.4) | Ki (MsepCSP8; Ki, pH 5.0) | Ki (MsepCSP8; Ki, pH 7.4) | IC50 (MsepCSP8; pH 5.0, read-out: IC50) | Ki (MsepCSP8; pH 7.4, read-out: Ki) | IC50 (MsepCSP8; pH 7.4, read-out: IC50) | also measured |
| --- | --- | --- | --- | --- | --- | --- | --- | --- |
| C=CC(C)(O)CCC=C(C)CCC=C(C)C (mixture of isomers) [Nerolidol] | 15.4 µM | 15 µM | 11.5 µM | 10.5 µM |  |  |  |  |
| CC1=CCC2C(C1)C2(C)C (single isomer, unassigned; (+)) [(+)-3-Carene] |  |  |  |  | 17.7 µM | 9.42 µM | 13.4 µM | binding affinity to MsepCSP8 in words (MsepCSP8): high binding affinities; Ki (MsepCSP8; pH 5.0, read-out: Ki): 13.2 µM |
| CC1(C)CCC[C@@]2(C)[C@@H]3CC4C([C@@H]31)C42C (single isomer, unassigned; (+)) [(+)-Longicyclene] |  |  |  |  | 395 µM | 28.2 µM | 40.1 µM | Ki (MsepCSP8; pH 5.0, read-out: Ki): 295 µM |
| C=C(C)C1CCC2(C)OC2C1 (single isomer, unassigned; (-)) [(–)-Limonene oxide] |  |  |  |  | 46.9 µM | 12.3 µM | 17.5 µM | Ki (MsepCSP8; pH 5.0, read-out: Ki): 35 µM |
| c1ccc(Nc2cccc3ccccc23)cc1 [1-NPN, N-phenyl-1-naphthylamine, reference compound] |  |  |  |  |  |  |  | Kd (MsepCSP8; pH 5.0): 2.93 µM; Kd (MsepCSP8; pH 7.4): 2.41 µM |
| C=CC(O)CCCCC (centres unmarked) [1-Octen-3-ol] | 13.2 µM | 8.25 µM | 9.88 µM | 5.79 µM |  |  |  | binding affinity to MsepCSP8 in words (MsepCSP8): bound strongly |
| CCCCCC(C)O (centres unmarked) [2-Heptanol] | 25.6 µM | 23.8 µM | 19.1 µM | 16.7 µM |  |  |  |  |
| CCC(C)C=O (centres unmarked) [2-Methylbutyraldehyde] | 21.4 µM | 13.8 µM | 16 µM | 9.66 µM |  |  |  | binding affinity to MsepCSP8 in words (MsepCSP8): high affinities |
| CCCCCCCCCC(C)=O [2-Undecanone] | 22.3 µM | 35.5 µM | 16.6 µM | 24.9 µM |  |  |  |  |
| CCC(O)CC [3-Pentanol] | 17.3 µM | 16 µM | 12.9 µM | 11.3 µM |  |  |  |  |
| Cc1ccc(C(C)C)cc1 [4-Isopropyltoluene] | 7.72 µM | 18 µM | 5.76 µM | 12.6 µM |  |  |  |  |
| CC1=CC[C@@H]2[C@@H]3[C@H]1[C@@]2(C)CCCC3(C)C [(+)-α-longipinene] |  |  |  |  | 14.4 µM | 9.86 µM | 14.1 µM | binding affinity to MsepCSP8 in words (MsepCSP8): high binding affinities; Ki (MsepCSP8; pH 5.0, read-out: Ki): 10.8 µM |
| C=C1CC[C@@H]2C[C@H]1C2(C)C [(R)-(+)-β-pinene] |  |  |  |  | 26.4 µM | 9.73 µM | 13.9 µM | binding affinity to MsepCSP8 in words (MsepCSP8): high binding affinities; Ki (MsepCSP8; pH 5.0, read-out: Ki): 19.7 µM |
| CC1=CC(=O)[C@H]2C[C@@H]1C2(C)C [(S)-(-)-verbenone] |  |  |  |  | 21.5 µM | 9.27 µM | 13.2 µM | binding affinity to MsepCSP8 in words (MsepCSP8): high binding affinities; Ki (MsepCSP8; pH 5.0, read-out: Ki): 16.1 µM |
| C=C1CC[C@H]2O[C@]2(C)CC[C@@H]2[C@@H]1CC2(C)C [(–)-Caryophyllene oxide] | 10.3 µM | 19.6 µM | 7.67 µM | 13.7 µM |  |  |  |  |
| CC/C=C\CCO [Cis-3-hexen-1-ol] | 29.8 µM | 21.4 µM | 22.3 µM | 15 µM |  |  |  |  |
| CC/C=C\CCOC(C)=O [Cis-3-hexenyl acetate] | 24.6 µM | 21 µM | 18.4 µM | 14.8 µM |  |  |  |  |
| OC1CCCCC1 [Cyclohexanol] |  |  |  |  |  |  |  | behavioral response in words (Mythimna separata; male and female moths): distinct preference |
| CCCCCCCCCC=O [Decanal] | 31 µM | 20.4 µM | 23.2 µM | 14.3 µM |  |  |  |  |
| CCCCCCCCCCCC=O [Dodecyl aldehyde] |  |  |  |  | 36.9 µM | 17.3 µM | 24.6 µM | Ki (MsepCSP8; pH 5.0, read-out: Ki): 27.5 µM |
| CCC/C=C/COC(C)=O [E-2-Hexen-1-ol acetate] | 62.8 µM | 14.6 µM | 46.9 µM | 10.2 µM |  |  |  |  |
| CCCCCCCCCCCCCCCCCCCC [Eicosane] | 46.3 µM | 48 µM | 34.6 µM | 33.7 µM |  |  |  |  |
| CCOC(C)=O [Ethyl acetate] | 29.2 µM | 67.3 µM | 21.8 µM | 47.2 µM |  |  |  |  |

| Compound | IC50 (MsepCSP8; IC50, pH 5.0) | IC50 (MsepCSP8; IC50, pH 7.4) | Ki (MsepCSP8; Ki, pH 5.0) | Ki (MsepCSP8; Ki, pH 7.4) | IC50 (MsepCSP8; pH 5.0, read-out: IC50) | Ki (MsepCSP8; pH 7.4, read-out: Ki) | IC50 (MsepCSP8; pH 7.4, read-out: IC50) | also measured |
| --- | --- | --- | --- | --- | --- | --- | --- | --- |
| CC12CCC(CC1)C(C)(C)O2 [Eucalyptol] | 88.1 µM | 25.2 µM | 65.7 µM | 17.7 µM |  |  |  |  |
| CCCCCCCCCCCCCCCC [Hexadecane] | 10.3 µM | 14.8 µM | 7.65 µM | 10.4 µM |  |  |  |  |
| CCCCCC [Hexane] | 26.3 µM | 9.69 µM | 19.6 µM | 6.8 µM |  |  |  | binding affinity to MsepCSP8 in words (MsepCSP8): bound highly |
| C=CC(C)(O)CCC=C(C)C (centres unmarked) [Linalool] | 25 µM | 14.5 µM | 18.7 µM | 10.1 µM |  |  |  |  |
| COC(=O)c1ccccc1 [Methyl benzoate] | 21.2 µM | 12.5 µM | 15.8 µM | 8.8 µM |  |  |  | binding affinity to MsepCSP8 in words (MsepCSP8): bound highly |
| C=CC(=C)CCC=C(C)C [Myrcene] | 17.4 µM | 16.6 µM | 13 µM | 11.6 µM |  |  |  |  |
| CCCCCCCCCCCCCCCCCCC [Nonadecane] | 19.8 µM | 25.1 µM | 14.8 µM | 17.6 µM |  |  |  |  |
| CCCCCCCCC=O [Nonanal] | 14.9 µM | 12.7 µM | 11.1 µM | 8.92 µM |  |  |  | binding affinity to MsepCSP8 in words (MsepCSP8): high affinities |
| C=CC(C)=CCC=C(C)C [Ocimene] |  |  |  |  | 15.6 µM | 11.7 µM | 16.7 µM | Ki (MsepCSP8; pH 5.0, read-out: Ki): 11.6 µM |
| CCCCCCCC [Octane] | 15.9 µM | 37 µM | 11.8 µM | 26 µM |  |  |  |  |
| CCCCCCCCCCCCCCCCCCCCCCCCC [Pentacosane] | 11.2 µM | 24.4 µM | 8.36 µM | 17.1 µM |  |  |  |  |
| C=C(C)[C@H]1CC=C(C)CC1 [R-(+)-Limonene] |  |  |  |  | 18.9 µM | 16.5 µM | 23.5 µM | Ki (MsepCSP8; pH 5.0, read-out: Ki): 14.1 µM |
| CCCCCCCCCCCCCC [Tetradecane] | 23.8 µM | 17.9 µM | 17.8 µM | 12.6 µM |  |  |  |  |
| CCC/C=C/CO [Trans-2-hexen-1-ol] | 8.46 µM | 23.8 µM | 6.31 µM | 16.7 µM |  |  |  | binding affinity to MsepCSP8 in words (MsepCSP8): bound strongly |
| CCCCCCCCCCCCCCCCCCCCC [n-Heneicosane] | 36.5 µM | 9.59 µM | 27.2 µM | 6.73 µM |  |  |  | binding affinity to MsepCSP8 in words (MsepCSP8): bound highly |
| C/C1=C\CC/C(C)=C/CC(C)(C)/C=C/C1 [α-Humulene] |  |  |  |  | 23.1 µM | 13 µM | 18.5 µM | Ki (MsepCSP8; pH 5.0, read-out: Ki): 17.2 µM |
| CC1=CC=C(C(C)C)CC1 [α-Terpinene] |  |  |  |  |  |  |  | behavioral response (attraction) of females (Mythimna separata; 3-day-old female moths, 10 μl volatile vs liquid paraffin): 70%; behavioral response (attraction) of males (Mythimna separata; 3-day-old male moths, 10 μl volatile vs liquid paraffin): 66% |
| CC(=O)/C=C/C1=C(C)CCCC1(C)C [β-Lonone] | 22.8 µM | 10.3 µM | 17 µM | 7.22 µM |  |  |  | binding affinity to MsepCSP8 in words (MsepCSP8): high affinity |
| (+)-Fenchone |  |  |  |  | 20 µM | 20.8 µM | 29.7 µM | Ki (MsepCSP8; pH 5.0, read-out: Ki): 14.9 µM |
| (–)-Isolongifolene |  |  |  |  | 61.6 µM | 17.3 µM | 24.6 µM | Ki (MsepCSP8; pH 5.0, read-out: Ki): 46 µM |
| (–)-Limonene |  |  |  |  | 15.1 µM | 28.4 µM | 40.4 µM | Ki (MsepCSP8; pH 5.0, read-out: Ki): 11.2 µM |
| Farnesene |  |  |  |  | 20.2 µM | 13.1 µM | 18.6 µM |  |
